Data as given in the CheMixHub viscosity set.
± gives the uncertainty stated by the source.

Assay: xn = mol fraction of the nth substance listed

O=S(=O)([O-])NC1CCCCC1.[Li+] + O
viscosity [mPa·s], 101 kPa
Details	x1 = 0.002028	x1 = 0.002453	x1 = 0.00294	x1 = 0.003377	x1 = 0.003805	x1 = 0.004126	x1 = 0.00489
293.15 K	1.078 ± 0.0072	1.095 ± 0.0073	1.115 ± 0.0074	1.133 ± 0.0075	1.151 ± 0.0076	1.164 ± 0.0077	1.197 ± 0.0079
298.15 K	0.956 ± 0.0064	0.9707 ± 0.0065	0.9874 ± 0.0066	1.002 ± 0.0067	1.018 ± 0.0068	1.029 ± 0.0069	1.058 ± 0.007
303.15 K	0.8547 ± 0.0058	0.8675 ± 0.0059	0.8819 ± 0.006	0.8949 ± 0.0061	0.9081 ± 0.0061	0.9174 ± 0.0062	0.9409 ± 0.0063
313.15 K	0.6978 ± 0.0049	0.7075 ± 0.0049	0.7186 ± 0.005	0.7288 ± 0.0051	0.739 ± 0.0051	0.7458 ± 0.0052	0.7652 ± 0.0053
323.15 K	0.5823 ± 0.0042	0.5898 ± 0.0042	0.5985 ± 0.0043	0.6067 ± 0.0043	0.6147 ± 0.0044	0.6202 ± 0.0044	0.6355 ± 0.0045

O=S(=O)([O-])[O-].O=S(=O)([O-])[O-].O=S(=O)([O-])[O-].[Fe+3].[Fe+3] + O
323.15 K, 101.3 kPa
Details	viscosity [mPa·s]
x1 = 0.0012	0.617 ± 0.049
x1 = 0.0024	0.645 ± 0.051
x1 = 0.00498	0.768 ± 0.074
x1 = 0.00789	0.982 ± 0.11
x1 = 0.0111	1.275 ± 0.13

O=S(=O)([O-])[O-].[Ni+2] + O
viscosity [mPa·s], 101 kPa
Details	x1 = 0.00332	x1 = 0.0106	x1 = 0.01799	x1 = 0.02625	x1 = 0.0309	x1 = 0.04249
298.15 K	1.04 ± 0.03	1.32 ± 0.03	1.82 ± 0.05	2.66 ± 0.07	3.13 ± 0.08	5.21 ± 0.14
313.15 K	0.762 ± 0.02	0.934 ± 0.024	1.283 ± 0.033	1.83 ± 0.048	2.145 ± 0.056	3.462 ± 0.091

OC[C@H]1O[C@@H]2O[C@H]3[C@H](O)[C@@H](O)[C@@H](O[C@H]4[C@H](O)[C@@H](O)[C@@H](O[C@H]5[C@H](O)[C@@H](O)[C@@H](O[C@H]6[C@H](O)[C@@H](O)[C@@H](O[C@H]7[C@H](O)[C@@H](O)[C@@H](O[C@H]8[C@H](O)[C@@H](O)[C@@H](O[C@H]1[C@H](O)[C@H]2O)O[C@@H]8CO)O[C@@H]7CO)O[C@@H]6CO)O[C@@H]5CO)O[C@@H]4CO)O[C@@H]3CO + O
viscosity [mPa·s], 101 kPa
Details	298.15 K	310.15 K
x1 = 7.87e-06	0.8909 ± 0.006	0.6934 ± 0.0049
x1 = 8.39e-06	0.891 ± 0.006	0.6935 ± 0.0049
x1 = 1.613e-05	0.8917 ± 0.006	0.6944 ± 0.0049
x1 = 1.679e-05	0.8918 ± 0.006	0.6945 ± 0.0049
x1 = 3.14e-05	0.8931 ± 0.006	0.6962 ± 0.0049
x1 = 6.268e-05	0.8961 ± 0.0061	0.6998 ± 0.005
x1 = 6.666e-05	0.8964 ± 0.0061	0.7003 ± 0.005
x1 = 0.0001254	0.9019 ± 0.0061	0.7071 ± 0.005
x1 = 0.0001309	0.9024 ± 0.0061	0.7078 ± 0.005
x1 = 0.0001573	0.9049 ± 0.0061	0.7109 ± 0.005
x1 = 0.0001654	0.9057 ± 0.0061	0.7118 ± 0.005
x1 = 0.0001906	0.908 ± 0.0061	0.7148 ± 0.005
x1 = 0.0002383	0.9125 ± 0.0062	0.7203 ± 0.0051
